Values of other authors as cited in patent US9393439B2, “Radiotherapy combined with hypoxic cell sensitizers” (IntraOp Medical Corporation, priority 2010, dated 2016).

Conditions: patients, single dose administration; above this level the incidence of side effects increases

## O=C(Cn1ccnc1[N+](=O)[O-])NCCO [Etanidazole, etanidazole]
  maximum tolerated dose (dose that may safely be given): 12 gm/m^2
